Like-named read-outs stand apart in the source and are kept apart here.
Columns and labels:
[1] = test system: MCF7 cells expressing mutant estrogen receptor Tyr 537 Ser; test: Test B: cell proliferation/viability assay (CellTiter-Glo) on MCF7 Tyr 537 Ser mutant; type: cell-based; conditions: Homo sapiens, MCF7, 168 h, MCF7 cells expressing ER Tyr 537 Ser mutant, 7 days of compound exposure, read-out: proliferation MCF7 Y537S IC50
Excerpt: (§1) Test B: Cell Proliferation/Viability Assay on MCF7 (Breast Tumor Cells) WT and Mutants Cell Lines
(§2) Test B involves measuring the in vitro proliferation activity of the compounds of the invention by analyzing the viability of the tumor cells.
(§3) The measurements of the viability were made using a breast cancer cell viability assay as described hereunder.
(§4) MCF7 cells expressing (and dependent) on mutants estrogen receptor Tyr 537 Ser or Asp 538 Gly were generated by transfection of MCF7 parental cells (ATCC) with expression vectors coding for different mutants of estrogen receptor Tyr 537 Ser or Asp 538 Gly. The cells were first selected by antibiotic (related to vector expression) and then selected for their growth dependence on estrogen receptor based on their ability to grow in vitro in absence of estradiol (parental cell line die in absence of estradiol).
(§5) MCF7 cells (ATCC) or MCF7 cells expressing (and dependent) on mutants estrogen receptor Tyr 537 Ser or Asp 538 Gly were seeded in 384 wells microplate at concentration of >999 cells/30 μL per well in red phenol free MEM medium containing 5% charcoal dextran striped FBS. The following day, 9 points serial 1:5 dilution of each compound were added to the cells in 20 μL at final concentrations ranging from 3-0.000001 μM. After 7 days of compound exposure, 50 μL of CellTiter-Glo (promega) was added to the cells and relative luminescence arbitrary units (RLUs) were determined in luminescence plate reader (Envision device). CellTiter-Glo was added to 50 μL medium without cells to determine the background signal.
(§6) The percent of viability of each sample was determined as follows: (RLU sample−RLU background/RLU untreated−RLU background)*100=% viability.

[2] = molecular target: His6-ERα298-554 Y537S mutant (ERα ligand-binding domain) (Homo sapiens (Human), UniProt P03372, Y537S); test: Test A: biochemical antagonist activity, LanthaScreen TR-FRET ERα coactivator assay, Y537S mutant; conditions: read-out: Antagonism Y537S IC50
Sequence of His6-ERα298-554 Y537S mutant (ERα ligand-binding domain) (P03372 298-554 Y537S): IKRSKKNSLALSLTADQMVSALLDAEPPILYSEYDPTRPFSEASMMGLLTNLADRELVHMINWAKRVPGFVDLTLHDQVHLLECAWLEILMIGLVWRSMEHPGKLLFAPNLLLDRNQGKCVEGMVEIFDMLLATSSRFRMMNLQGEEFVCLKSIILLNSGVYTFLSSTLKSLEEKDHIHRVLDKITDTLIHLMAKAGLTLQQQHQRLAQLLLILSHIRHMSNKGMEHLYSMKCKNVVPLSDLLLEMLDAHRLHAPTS
Method in brief: (§7)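 His6-ERα LBD (aa 298–554), 0.5 nM, with Tb-anti-His6 antibody, 250 nM PGC1a peptide and 3 nM (or 10 nM) estradiol in pH 7.4 potassium phosphate/DTT buffer; incubated with compound overnight at room temperature. IC50 from 4-parameter logistic fit of TR-FRET 520:495 nm ratio.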

[3] = molecular target: His6-ERα298-554 D538G mutant (ERα ligand-binding domain) (Homo sapiens (Human), UniProt P03372, D538G); test: Test A: biochemical antagonist activity, LanthaScreen TR-FRET ERα coactivator assay, D538G mutant; conditions: read-out: Antagonism D538G IC50
Sequence of His6-ERα298-554 D538G mutant (ERα ligand-binding domain) (P03372 298-554 D538G): as the sequence (P03372 298-554 Y537S) above, with S240Y, D241G counted along it
Method in brief: as §7

[4] = test system: MCF7 cells (breast tumor cells) WT; test: Test B: cell proliferation/viability assay (CellTiter-Glo) on MCF7 WT; type: cell-based; conditions: 7 days of compound exposure
Protocol: as §1, §2
The measurements of the viability were made using a breast cancer cell viability assay as described hereunder. […]
as §5, §6

ERα in MCF7 cells = ERα in MCF7 cells (Homo sapiens (Human), UniProt P03372); test: Test C: estrogen receptor degradation activity, ERα in cell western assay in MCF7 cells; type: cell-based; conditions: for DC50: 4 hours post compound addition, ERα in cell western, read-out: Degradation IC50; for % Degradation at 3 μM: 4 hours, relative to fulvestrant
Sequence of ERα in MCF7 cells (P03372 whole entry): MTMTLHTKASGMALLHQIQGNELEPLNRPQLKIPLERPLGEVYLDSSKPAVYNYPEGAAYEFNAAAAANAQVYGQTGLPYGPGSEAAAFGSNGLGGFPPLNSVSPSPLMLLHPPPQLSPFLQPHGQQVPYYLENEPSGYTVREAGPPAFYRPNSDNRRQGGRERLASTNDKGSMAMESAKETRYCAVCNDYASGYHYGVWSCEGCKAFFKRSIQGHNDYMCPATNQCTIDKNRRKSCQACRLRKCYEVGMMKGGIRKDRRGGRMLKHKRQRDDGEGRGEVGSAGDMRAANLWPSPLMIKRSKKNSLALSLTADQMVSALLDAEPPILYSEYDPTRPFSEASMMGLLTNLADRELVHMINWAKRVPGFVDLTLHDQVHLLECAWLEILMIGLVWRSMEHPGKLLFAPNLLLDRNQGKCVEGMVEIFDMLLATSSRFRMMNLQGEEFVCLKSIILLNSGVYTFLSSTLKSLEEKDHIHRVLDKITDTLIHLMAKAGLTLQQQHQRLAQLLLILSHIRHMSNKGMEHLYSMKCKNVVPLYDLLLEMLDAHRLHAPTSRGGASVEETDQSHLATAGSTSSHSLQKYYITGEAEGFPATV
Method in brief: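 ERα level is read as integrated green fluorescence, with DNA taken from red Syto-64 signal, after MCF7 cells are exposed to compound for 4 hours. Cells grow in hormone-depleted medium (5% charcoal-dextran stripped FBS, no phenol red); fulvestrant at 0.1 μM is the positive control.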

[5] = test system: MCF7 cells expressing mutant estrogen receptor Asp 538 Gly; test: Test B: cell proliferation/viability assay (CellTiter-Glo) on MCF7 Asp 538 Gly mutant; type: cell-based; conditions: Homo sapiens, MCF7, 168 h, MCF7 cells expressing ER Asp 538 Gly mutant, 7 days of compound exposure, read-out: proliferation MCF7 D538G IC50
Excerpt: as §1, §2, §3, §4, §5, §6

[6] = molecular target: His6-ERα298-554 WT (ERα ligand-binding domain) (Homo sapiens (Human), UniProt P03372); test: Test A: biochemical antagonist activity, LanthaScreen TR-FRET ERα coactivator assay, WT; conditions: read-out: Antagonism WT IC50
Sequence of His6-ERα298-554 WT (ERα ligand-binding domain) (P03372 298-554): as the sequence (P03372 298-554 Y537S) above, with S240Y counted along it
Method in brief: as §7

[7] = asterisk (*): protocol using 10 nM estradiol

Structure (SMILES) | IC50 [1] | IC50 [2, 7] | IC50 [3, 7] | IC50 [4] | DC50 (ERα in MCF7 cells) | % Degradation at 3 μM (ERα in MCF7 cells) | IC50 [5] | IC50 [6, 7] | IC50 ([4]; Homo sapiens, MCF7, 168 h) | IC50 ([2]; protocol with 3 nM estradiol) | IC50 ([3]; protocol with 3 nM estradiol) | IC50 ([6]; protocol with 3 nM estradiol)
Cc1ccc(C2=C(c3ccc(O[C@H]4CCN(CCCF)C4)cc3)c3ccc(O)cc3[S+]([O-])C2)c(F)c1 (single isomer, unassigned) [Example 70] | 478 nM | > 4000 nM | > 4000 nM | 64 nM | 25 nM | 73% | 97 nM | 1660 nM | – | – | – | –
Oc1ccc2c(c1)CCC(c1ccc(OC(F)(F)F)cc1)=C2c1ccc(O[C@H]2CCN(CCCF)C2)cc1 [Example 12, 5-[4-[(3S)-1-(3-fluoropropyl)pyrrolidin-3-yl]oxyphenyl]-6-[4-(trifluoromethoxy)phenyl]-7,8-dihydronaphthalen-2-ol] | 9 nM | – | – | – | – | – | 5 nM | – | 1 nM | – | – | –
Oc1ccc2c(c1)CCC(c1ccc(F)cc1Cl)=C2c1ccc(O[C@H]2CCN(CCCF)C2)cc1 [Example 13, 6-(2-chloro-4-fluoro-phenyl)-5-[4-[(3S)-1-(3-fluoropropyl)pyrrolidin-3-yl]oxyphenyl]-7,8-dihydronaphthalen-2-ol] | 8 nM | – | – | – | – | – | 3 nM | – | 0.4 nM | – | – | –
Oc1ccc2c(c1)CCC(c1ccc(Cl)cc1Cl)=C2c1ccc(O[C@H]2CCN(CCCF)C2)cc1 [Example 14, 6-(2,4-dichlorophenyl)-5-[4-[(3S)-1-(3-fluoropropyl)pyrrolidin-3-yl]oxyphenyl]-7,8-dihydronaphthalen-2-ol] | 6 nM | – | – | – | – | – | 1 nM | – | 0.5 nM | – | – | –
Oc1ccc(C2=C(c3ccc(O[C@H]4CCN(CCCF)C4)cc3)c3ccc(O)cc3CC2)cc1 [Example 15, 5-[4-[(3S)-1-(3-fluoropropyl)pyrrolidin-3-yl]oxyphenyl]-6-(4-hydroxyphenyl)-7,8-dihydronaphthalen-2-ol] | 30 nM | – | – | – | – | – | 25 nM | – | 0.2 nM | – | – | –
Cc1ccc(C2=C(c3ccc(O[C@H]4CCN(CCCF)C4)cc3)c3ccc(O)cc3SC2)c(Cl)c1 [Example 58, 3-(2-chloro-4-methyl-phenyl)-4-[4-[(3S)-1-(3-fluoropropyl)pyrrolidin-3-yl]oxyphenyl]-2H-thiochromen-7-ol] | 5 nM | – | – | – | – | – | 0.8 nM | – | 2 nM | – | – | –
Cc1nc(C)c(C2=C(c3ccc(O[C@H]4CCN(CCCF)C4)cc3)c3ccc(O)cc3SC2)s1 [Example 68, 3-(2,4-dimethylthiazol-5-yl)-4-[4-[(3S)-1-(3-fluoropropyl)pyrrolidin-3-yl]oxyphenyl]-2H-thiochromen-7-ol] | 125 nM | – | – | – | – | – | 7 nM | – | 14 nM | – | – | –
CC(C)Oc1ccc(C2=C(c3ccc(O[C@H]4CCN(CCCF)C4)cc3)c3ccc(O)cc3OCC2)c(C(F)(F)F)c1.Cl [Example 150, 5-[4-[(3S)-1-(3-fluoropropyl)pyrrolidin-3-yl]oxyphenyl]-4-[4-isopropoxy-2-(trifluoromethyl)phenyl]-2,3-dihydro-1-benzoxepin-8-ol hydrochloride] | 14 nM | – | – | – | 4 nM | 82% | 2 nM | – | 0.4 nM | – | – | –
Oc1ccc2c(c1)SCCC(c1ccc(Cl)cc1Cl)=C2c1ccc(O[C@H]2CCN(CCCF)C2)cc1 [Example 166, 4-(2,4-dichlorophenyl)-5-[4-[(3S)-1-(3-fluoropropyl)pyrrolidin-3-yl]oxyphenyl]-2,3-dihydro-1-benzothiepin-8-ol] | 8 nM | – | – | – | 2 nM | 90% | 1 nM | – | 0.2 nM | – | – | –
O=C(O)c1ccc2c(c1)SCCC(c1ccc(Cl)cc1Cl)=C2c1ccc(O[C@H]2CCN(CCCF)C2)cc1 [Example 203, 4-(2,4-dichlorophenyl)-5-[4-[(3S)-1-(3-fluoropropyl)pyrrolidin-3-yl]oxyphenyl]-2,3-dihydro-1-benzothiepine-8-carboxylic acid] | 13 nM | – | – | – | 0.6 nM | 93% | 1 nM | – | 0.8 nM | – | – | –
Oc1ccc2c(c1)SCCC(c1ccc(Cl)cc1Cl)=C2c1ccc(O[C@H]2CCN(CCCF)C2)nc1 [Example 205, 4-(2,4-dichlorophenyl)-5-[6-[(3S)-1-(3-fluoropropyl)pyrrolidin-3-yl]oxy-3-pyridyl]-2,3-dihydro-1-benzothiepin-8-ol] | 3 nM | – | – | – | 0.4 nM | 84% | 0.2 nM | – | 0.2 nM | – | – | –
O=S1(=O)CCC(c2cccc(F)c2Cl)=C(c2ccc(O[C@H]3CCN(CCCF)C3)cc2)c2ccc(O)cc21 [Example 232, 4-(2-chloro-3-fluoro-phenyl)-5-[4-[(3S)-1-(3-fluoropropyl)pyrrolidin-3-yl]oxyphenyl]-1,1-dioxo-2,3-dihydro-1λ^6-benzothiepin-8-ol] | – | – | – | – | 0.2 nM | 95% | – | – | – | 78 nM | 99 nM | 16 nM
O=S1(=O)CCC(c2ccc(Cl)cc2F)=C(c2ccc(O[C@H]3CCN(CCCF)C3)cc2)c2ccc(O)cc21 [Example 233, 4-(4-chloro-2-fluoro-phenyl)-5-[4-[(3S)-1-(3-fluoropropyl)pyrrolidin-3-yl]oxyphenyl]-1,1-dioxo-2,3-dihydro-1λ^6-benzothiepin-8-ol] | – | – | – | – | 0.2 nM | 94% | – | – | – | 70 nM | 128 nM | 20 nM
Cc1cc(F)ccc1C1=C(c2ccc(O[C@H]3CCN(CCCF)C3)cc2)c2ccc(O)cc2S(=O)(=O)CC1 [Example 234, 4-(4-fluoro-2-methyl-phenyl)-5-[4-[(3S)-1-(3-fluoropropyl)pyrrolidin-3-yl]oxyphenyl]-1,1-dioxo-2,3-dihydro-1λ^6-benzothiepin-8-ol] | – | – | – | – | 0.2 nM | 90% | – | – | – | 33 nM | 59 nM | 9 nM
Cc1c(Cl)cccc1C1=C(c2ccc(O[C@H]3CCN(CCCF)C3)cc2)c2ccc(O)cc2S(=O)(=O)CC1 [Example 235, 4-(3-chloro-2-methyl-phenyl)-5-[4-[(3S)-1-(3-fluoropropyl)pyrrolidin-3-yl]oxyphenyl]-1,1-dioxo-2,3-dihydro-1λ^6-benzothiepin-8-ol] | – | – | – | – | 0.9 nM | 95% | – | – | – | 83 nM | 100 nM | 13 nM
Cc1cc(C2=C(c3ccc(O[C@H]4CCN(CCCF)C4)cc3)c3ccc(O)cc3S(=O)(=O)CC2)ccc1Cl [Example 236, 4-(4-chloro-3-methyl-phenyl)-5-[4-[(3S)-1-(3-fluoropropyl)pyrrolidin-3-yl]oxyphenyl]-1,1-dioxo-2,3-dihydro-1λ^6-benzothiepin-8-ol] | – | – | – | – | 0.3 nM | 91% | – | – | – | 29 nM | 54 nM | 8 nM
Oc1ccc2c(c1)CCCC(c1ccc(Cl)c(F)c1)=C2c1ncc(O[C@H]2CCN(CCCF)C2)cn1 [Example 254, 6-(4-chloro-3-fluoro-phenyl)-5-[5-[(3S)-1-(3-fluoropropyl)pyrrolidin-3-yl]oxypyrimidin-2-yl]-8,9-dihydro-7H-benzo[7]annulen-2-ol] | 129 nM | – | – | – | – | – | 17 nM | – | 16 nM | – | – | –

— US11149031B2, “Substituted N-(3-fluoropropyl)-pyrrolidine compounds, processes for their preparation and therapeutic uses thereof” (SANOFI, priority 2016, dated 2021)
